Key:
[1] = pH 7.4
[2] = Ionisation constant (pKa); type: physicochemical
clinical = details: human, in vivo, iv
in vitro [3] = details: tissues
in vitro [4] = details: human, plasma

SMILES | chromatographic logD (physchem) | Fraction ionised [1] | pKa [2] | Vd (clinical) [L/kg] | fraction unbound (in vitro [3]) | fraction unbound (in vitro [4])
CC(=O)Nc1ccc(O)cc1 [ACETAMINOPHEN] | 0.38 | 0 | Not Active | 0.95 | 0.503 | 1
CN1CCCC(n2nc(Cc3ccc(Cl)cc3)c3ccccc3c2=O)CC1 (stereo unspecified) [AZELASTINE] | 1.93 | 0.993 | 9.54 | 15 | 0.004 | 0.17
CCC(C)n1ncn(-c2ccc(N3CCN(c4ccc(OCC5COC(Cn6cncn6)(c6ccc(Cl)cc6Cl)O5)cc4)CC3)cc2)c1=O (stereo unspecified) [ITRACONAZOLE] | 5.79 | 0 | Not Active | 3.9 |  | 0.028
CCc1nn(CCCN2CCN(c3cccc(Cl)c3)CC2)c(=O)n1CCOc1ccccc1 [NEFAZODONE] | 4.83 | 0.197 | 6.79 | 0.51 | 0.008 | 
CCN(CC)CCCC(C)Nc1c2ccc(Cl)cc2nc2ccc(OC)cc12 (stereo unspecified) [QUINACRINE] | 1.1 |  | 10.2 | 223 |  | 0.103
C#CCCCC(=O)c1cc(C(C)(C)C)c(O)c(C(C)(C)C)c1 [TEBUFELONE] | 5.56 | 0 |  | 31 | 8e-06 | 0.00067
Cc1ccc(O)c([C@H](CCN(C(C)C)C(C)C)c2ccccc2)c1 [TOLTERODINE] | 1.04 | 0.997 | 9.87 | 1.3 | 0.012 | 

Source: ChEMBL document CHEMBL1135488, “Prediction of volume of distribution values in humans for neutral and basic drugs using physicochemical measurements and plasma protein binding data” (J Med Chem, 2002)
